Laboratory results: patent publication US10440955B2, “Methods comprising a biocidal polyamine” (Curza Global, LLC, priority 2013, dated 2019)
Values after ≈ are worked out from the molar mass of the structure shown. Where two headings read alike, the source gives them in different places.

How the values were obtained:
L-929 cells (ATCC CCL-1) = experiment: Minimal Essential Media (MEM) Elution cytotoxicity test; assay type: cell-based; conditions: Table 11A
Method: Summary: The Minimal Essential Media (MEM) Elution test was designed to determine the cytotoxicity of extractable substances. The test article was added to cell monolayers and incubated. The cell monolayers were examined and scored based on the degree of cellular destruction.
Acceptance Criteria: The United States Pharmacopeia & National Formulary (USP <87>) states that the test article meets the requirements, or receives a passing score (Pass) if the reactivity grade is not greater than grade 2 or a mild reactivity.
Acceptance criteria were based upon the negative and media controls receiving “0” reactivity grades and positive controls receiving a 3-4 reactivity grades (moderate to severe).
The cell monolayers were examined microscopically. The wells were scored as to the degree of discernable morphological cytotoxicity on a relative scale of 0 to 4:
The results from the three wells were averaged to give a final cytotoxicity score.
[…] This initial concentration was then diluted 1: 2, 1:4, 1:8, and 1:16. Multiple well cell culture plates were seeded with a verified quantity of industry standard L-929 cells (ATCC CCL-1) and incubated until approximately 80% confluent. The test articles and control extracts were added to the cell monolayers in triplicate. The cells were incubated at 37±1° C. with 5±1% CO2 for 48±3 hours.

MRSA = experiment: MIC, 96-well CAMHB, 10^5 to 10^2 CFU/mL in 24 hours; assay type: cell-based, Staphylococcus aureus; conditions: for MIC: Staphylococcus aureus, MRSA, read-out: MIC (MRSA)
Method: (§1) To determine the MIC of polyamine compounds, the protocol described herein was used.
In brief, a 0.5 McFarland of each bacterial isolate was made. A 0.5 McFarland is a measure of turbidity in a liquid sample that contains approximately 1×10^∧8 CFU/mL. The 0.5 McFarland standard was diluted in cation adjusted Mueller Hinton Broth (CAMHB), and 50 μL of broth were added to a well of a 96-well plate. In addition, 50 μL of CAMHB that contained a desired concentration of antimicrobial were also added to the well for a final volume of 100 μL and a final concentration of approximately 5×10^4 CFU/well (which equated to approximately 5×10^5 CFU/mL). Each well contained a desired amount of polyamine compound in order to experimentally determine the MIC. Each 96-well plate was incubated at 37° C. for 24 hours. The contents of each well were plated on tryptic soy agar (TSA). TSA plates were incubated for 37° C. for 24 hours after which the number of CFU were counted and used to calculate the CFU/mL that remained after exposure to varying concentrations of compound. This procedure was repeated n=8 times for each concentration of antimicrobial. […]

P. aeruginosa = experiment: as above; assay type: cell-based, Pseudomonas aeruginosa; conditions: for MIC: Pseudomonas aeruginosa
Method: as §1
In brief, a 0.5 McFarland of each bacterial isolate was made. A 0.5 McFarland is a measure of turbidity in a liquid sample that contains approximately 1×10^∧8 CFU/mL. The 0.5 McFarland standard was diluted in cation adjusted Mueller Hinton Broth (CAMHB), and 50 μL of broth were added to a well of a 96-well plate. In addition, 50 μL of CAMHB that contained a desired concentration of antimicrobial were also added to the well for a final volume of 100 μL and a final concentration of approximately 5×10^4 CFU/well (which equated to approximately 5×10^5 CFU/mL). Each well contained a desired amount of polyamine compound in order to experimentally determine the MIC. Each 96-well plate was incubated at 37° C. for 24 hours. The contents of each well were plated on tryptic soy agar (TSA). TSA plates were incubated for 37° C. for 24 hours after which the number of CFU were counted and used to calculate the CFU/mL that remained after exposure to varying concentrations of compound. This procedure was repeated n=8 times for each concentration of antimicrobial.

[1] = Table 5, read-out: MIC (P. aeruginosa)

Compound	MIC (MRSA; Table 5) [µM]	MIC (P. aeruginosa; [1]) [µM]	also measured
CCCCCCCCNCCCNCCCNCc1cc(CNCCCNCCCNCCCCCCCC)cc(-c2ccccc2)c1 [CZ-92, N^1,N^1′-([1,1′-biphenyl]-3,5-diylbis(methylene))bis(N^3-(3-(octylamino)propyl)-propane-1,3-diamine)]	< 50	< 50	Results Pass/Fail (L-929 cells (ATCC CCL-1); 25 μg/mL): Fail (a numerical grade greater than 2 is considered a cytotoxic effect, or a failing score (Fail)); Results Pass/Fail (L-929 cells (ATCC CCL-1); dilution 1:2 of 25 μg/mL): Fail (a numerical grade greater than 2 is considered a cytotoxic effect, or a failing score (Fail)); Results Pass/Fail (L-929 cells (ATCC CCL-1); dilution 1:4 of 25 μg/mL): Fail (a numerical grade greater than 2 is considered a cytotoxic effect, or a failing score (Fail)); Results Pass/Fail (L-929 cells (ATCC CCL-1); dilution 1:8 of 25 μg/mL): Fail (a numerical grade greater than 2 is considered a cytotoxic effect, or a failing score (Fail)); Results Pass/Fail (L-929 cells (ATCC CCL-1); dilution 1:16 of 25 μg/mL): Pass (receives a passing score (Pass) if the reactivity grade is not greater than grade 2 or a mild reactivity)
CC(C)CNCCCOc1cc(CNCCCNCCCN)cc(CNCCCNCCCN)c1 [CZ-107, N^1,N^1′-((5-(3-(isoButylammonio)propoxy)-1,3-phenylene)bis(methylene))-bis(N^3-(3-ammoniopropyl)propane-1,3-diaminium) chloride]			MIC (MRSA): < 50 µM; MIC (P. aeruginosa; read-out: MIC (P. aeruginosa), Table 5): 50 to 100 µM
CC(C)CNCCCNCCCNCc1cccc(CNCCCNCCCNCC(C)C)c1 [CZ-108, N^1,N^1′-(1,3-phenylenebis(methylene))bis(N^3-(3-(isobutylamino)propyl)propane-1,3-diamine)]	< 50	< 50	
CC(C)CNCCCNCCCNCc1cc(Br)cc(CNCCCNCCCNCC(C)C)c1 [CZ-109, N^1,N^1′-((5-bromo-1,3-phenylene)bis(methylene))bis(N^3-(3-(isobutylamino)propyl)propane-1,3-diamine)]	< 50	< 50	
CC(C)CNCCCNCCCCNCc1cc(CNCCCCNCCCNCC(C)C)cc(-c2ccccc2)c1 [CZ-111, N^1,N^1′-([1,1′-biphenyl]-3,5-diylbis(methylene))bis(N^4-(3-(isobutylamino)propyl)butane-1,4-diamine)]	< 50	< 50	
CCCCCCNCCCNCCCNCc1cccc(CNCCCNCCCNCCCCCC)c1 [CZ-113, N^1,N^1′-(1,3-phenylenebis(methylene))bis(N^3-(3-(hexylamino)propyl)propane-1,3-diamine)]	< 50	< 50	
CCCCCCNCCCNCCCNCc1cc(CNCCCNCCCNCCCCCC)cc(-c2ccccc2)c1 [CZ-114, N^1,N^1′-([1,1′-biphenyl]-3,5-diylbis(methylene))bis(N^3-(3-(hexylamino)propyl)propane-1,3-diamine)]	< 50	< 50	
NCCCCCCCCCCCCNCc1cc(CNCCCCCCCCCCCCN)cc(-c2ccccc2)c1 [CZ-115, N^1,N^1′-([1,1′-biphenyl]-3,5-diylbis(methylene))bis(dodecane-1,12-diamine)]	< 50	< 50	
CC(C)CNCCCCCCCCCCCCNCc1cccc(-c2cc(CNCCCCCCCCCCCCNCC(C)C)cc(CNCCCCCCCCCCCCNCC(C)C)c2)c1 [CZ-117, N^1,N^1′,N^1″-([1,1′-biphenyl]-3,3′,5-triyltris(methylene))tris(N^12-isobutyldodecane-1,12-diamine)]	< 50	< 50	
CCCCCCNCCCNCCCCNCc1cccc(CNCCCCNCCCNCCCCCC)c1 [CZ-119, N^1,N^1′-(1,3-phenylenebis(methylene))bis(N^4-(3-(hexylamino)propyl)butane-1,4-diamine)]	< 50	< 50	
N^1,N^1′,N^1″-((4′-(trifluoromethyl)-[1,1′-biphenyl]-3,3′,5-triyl)tris(methylene))tris(N3-(3-aminopropyl)propane-1,3-diamine), hydrochloride salt [CZ-69]			MIC (MRSA) (MRSA; Table 5): +++ (+++ = 50 μM > MIC. MIC results of “>n μM” or “<n μM” will also be designated as +++ if n <50.); MIC (P. aeruginosa) (P. aeruginosa; Table 5): +++ (+++ = 50 μM > MIC. MIC results of “>n μM” or “<n μM” will also be designated as +++ if n <50.)
tri-tert-butyl-(((((benzene-1,3,5-triyltris(methylene))tris(azanediyl))tris-(propane-3,1-diyl))tris(azanediyl))tris(propane-3,1-diyl))tricarbamate, hydrochloride salt [CZ-54]			MIC (MRSA) (MRSA; Table 5): +++ (+++ = 50 μM > MIC. MIC results of “>n μM” or “<n μM” will also be designated as +++ if n <50.); MIC (P. aeruginosa) (P. aeruginosa; Table 5): +++ (+++ = 50 μM > MIC. MIC results of “>n μM” or “<n μM” will also be designated as +++ if n <50.)

The next lines start with results.

MIC (MRSA; Table 5) [µM]	MIC (P. aeruginosa; [1]) [µM]	Compound	also measured
< 50	< 50	c1ccc(-c2cc(CNCCCNCCCNCC3CCCCC3)cc(CNCCCNCCCNCC3CCCCC3)c2)cc1 [CZ-96, N^1,N^1′-([1,1′-biphenyl]-3,5-diylbis(methylene))bis(N^3-(3-((cyclohexylmethyl)amino)propyl)propane-1,3-diamine)]	Results Pass/Fail (L-929 cells (ATCC CCL-1); 25 μg/mL): Pass (receives a passing score (Pass) if the reactivity grade is not greater than grade 2 or a mild reactivity); Results Pass/Fail (L-929 cells (ATCC CCL-1); dilution 1:2 of 25 μg/mL): Pass (receives a passing score (Pass) if the reactivity grade is not greater than grade 2 or a mild reactivity); Results Pass/Fail (L-929 cells (ATCC CCL-1); dilution 1:4 of 25 μg/mL): Pass (receives a passing score (Pass) if the reactivity grade is not greater than grade 2 or a mild reactivity); Results Pass/Fail (L-929 cells (ATCC CCL-1); dilution 1:8 of 25 μg/mL): Pass (receives a passing score (Pass) if the reactivity grade is not greater than grade 2 or a mild reactivity); Results Pass/Fail (L-929 cells (ATCC CCL-1); dilution 1:16 of 25 μg/mL): Pass (receives a passing score (Pass) if the reactivity grade is not greater than grade 2 or a mild reactivity)
< 50	50 to 100 (≈ 23.1 to 46.3 µg/mL)	NCCCNCCCNCc1cc(CNCCCNCCCN)cc(OC2CCCCC2)c1 [CZ-105]	
< 50	50 to 100 (≈ 29.1 to 58.3 µg/mL)	CC(C)CNCCCNCCCNCc1cc(CNCCCNCCCNCC(C)C)cc(OCc2ccccc2)c1 [CZ-106, N^1,N^1′-((5-(benzyloxy)-1,3-phenylene)bis(methylene))bis(N^3-(3-(isobutylamino)propyl)propane-1,3-diamine)]	
< 50	< 50	CC(C)CNCCCNCC(C)(C)CNCc1cc(CNCC(C)(C)CNCCCNCC(C)C)cc(-c2ccccc2)c1 [CZ-112, N^1,N^1′-([1,1′-biphenyl]-3,5-diylbis(methylene))bis(N^3-(3-(isobutylamino)propyl)-2,2-dimethylpropane-1,3-diamine)]	
< 50	< 50	CC(C)CNCCCCCCCCCCCCNCc1cc(CNCCCCCCCCCCCCNCC(C)C)cc(-c2ccccc2)c1 [CZ-116, N^1,N^1′-([1,1′-biphenyl]-3,5-diylbis(methylene))bis(N^12-isobutyldodecane-1,12-diamine)]	
< 50	< 50	CCCCCCNCCCNCCCCNCc1cc(CNCCCCNCCCNCCCCCC)cc(-c2ccccc2)c1 [CZ-118, N^1,N^1′-([1,1′-biphenyl]-3,5-diylbis(methylene))bis(N^4-(3-(hexylamino)propyl)butane-1,4-diamine)]	
